Here are results for 3 compounds from article PMC12250302, “Synthesis, Antimicrobial Activities, and Model of Action of Novel Tetralone Derivatives Containing Aminoguanidinium Moiety” (International Journal of Molecular Sciences, 2025).

Assay in all cases: MIC and MBC testing, broth microdilution
A general note: Broth dilution looks for growth in wells or tubes with falling amounts of substance.

The subject of one assay is E. faecium ATCC 35667. In kind it is cell-based, Enterococcus faecium. The settings on record: Enterococcus faecium, ATCC35667, E. faecium ATCC 35667; for MIC: 18 h, read-out: MIC; for MBC: read-out: MBC. Summed up: (§1)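 Log-phase cultures diluted in Mueller-Hinton broth to 1 × 10^6 CFU/mL were exposed to doubling dilutions of DMSO-dissolved compounds at 37 °C for 18 h, each concentration in triplicate. Lowest concentration lacking visible growth recorded as MIC; controls were levofloxacin and 0.1% DMSO.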

A further assay has as its system A. baumannii ATCC 19606. Type of assay: cell-based, Acinetobacter baumannii. The settings on record: Acinetobacter baumannii; for MIC: ATCC19606, 18 h, read-out: MIC; for MBC: ATCC19606, read-out: MBC. In outline: as §1
The next assay deals with S. aureus ATCC 29213. In kind it is cell-based, Staphylococcus aureus. The note with it: Staphylococcus aureus, ATCC29213, S. aureus ATCC 29213; for MIC: 18 h, read-out: MIC; for MBC: read-out: MBC. Summed up: as §1
The next assay concerns E. coli ATCC 25922. Type of assay: cell-based, Escherichia coli. The settings on record: Escherichia coli; for MIC: ATCC25922, 18 h, read-out: MIC; for MBC: ATCC25922, read-out: MBC. Summed up: as §1
The subject of assay [1] is K. pneumoniae ATCC 700603. Type of assay: cell-based, Klebsiella pneumoniae. The note with it: Klebsiella pneumoniae; for MIC: ATCC700603, 18 h, read-out: MIC; for MBC: ATCC700603, read-out: MBC. Summed up: as §1
A further assay deals with P. aeruginosa ATCC 27853. Type of assay: cell-based, Pseudomonas aeruginosa. The note with it: Pseudomonas aeruginosa; for MIC: ATCC27853, 18 h, read-out: MIC; for MBC: ATCC27853, read-out: MBC. In outline: as §1
In the next assay the test system is MRSA-2. In kind it is cell-based, Staphylococcus aureus. The note with it: Staphylococcus aureus, MRSA-2; for MIC: 18 h, read-out: MIC; for MBC: read-out: MBC. In outline:
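Log-phase cultures, adjusted to 1 × 10^6 CFU/mL in MH broth, are exposed to twofold serial compound dilutions and held at 37 °C for 18 h. Triplicate per concentration; both inhibitory and bactericidal endpoints are taken.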

Assay [2] concerns clinical S. aureus isolate LMY48. In kind it is cell-based, Staphylococcus aureus. The settings on record: Staphylococcus aureus, LMY48; for MIC: 18 h, read-out: MIC; for MBC: read-out: MBC. In outline: (§2)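 Broth microdilution in MH broth: 2-fold compound dilutions from DMSO stocks, log-phase clinical S. aureus isolates or MRSA-1 at 1 × 10^6 CFU/mL, 18 h at 37 °C, each concentration in triplicate. MIC recorded; MBC also determined.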

For assay [3], the system named is clinical S. aureus isolate LMY45. In kind it is cell-based, Staphylococcus aureus. The settings on record: Staphylococcus aureus, LMY45; for MIC: 18 h, read-out: MIC; for MBC: read-out: MBC. In outline:
as §2

For assay [4], the system named is clinical S. aureus isolate LMY47. Type of assay: cell-based, Staphylococcus aureus. The settings on record: Staphylococcus aureus, LMY47; for MIC: 18 h, read-out: MIC; for MBC: read-out: MBC. In outline:
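Compounds in DMSO were serially two-fold diluted in MH broth and mixed with log-phase bacteria diluted to 1 × 10^6 CFU/mL in MH broth, then incubated 18 h at 37 °C. MBC values were also determined. Each concentration was tested in triplicate.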

Assay [5] concerns clinical S. aureus isolate LMY46. In kind it is cell-based, Staphylococcus aureus. The note with it: Staphylococcus aureus, LMY46; for MIC: 18 h, read-out: MIC; for MBC: read-out: MBC. Summed up: as §2
The subject of the next assay is MRSA-1. Type of assay: cell-based, Staphylococcus aureus. The note with it: Staphylococcus aureus, MRSA-1; for MIC: 18 h, read-out: MIC; for MBC: read-out: MBC. In outline:
as §2

Converted amounts (≈) assume the structure as drawn.

Consider `[H]/N=C(\N)NN=C1CCCc2cc(OCc3cccc(-c4ccccc4)c3)ccc21` [Compound 1W, (E)-2-(6-([1,1’-biphenyl]-3-ylmethoxy)-3,4-dihydronaphthalen-1(2H)-ylidene)hydrazine-1-carboximidamide], for which the MIC in the assay on E. faecium ATCC 35667 is 2 µg/mL (≈ 5.2 µM); in the assay on A. baumannii ATCC 19606, 32 µg/mL (≈ 83.2 µM); in the assay with S. aureus ATCC 29213, 2 µg/mL (≈ 5.2 µM); in the assay with E. coli ATCC 25922 it was 32 µg/mL (≈ 83.2 µM); in assay [1], greater than 32 µg/mL; in the assay with P. aeruginosa ATCC 27853 it was greater than 32 µg/mL. For the same compound, the MIC in the assay on MRSA-2 came out at 2 µg/mL (≈ 5.2 µM); in assay [2], 2 µg/mL (≈ 5.2 µM); in [3], 2 µg/mL (≈ 5.2 µM); in assay [4], 2 µg/mL (≈ 5.2 µM); in [5], 2 µg/mL (≈ 5.2 µM); in the assay with MRSA-1, 4 µg/mL (≈ 10.4 µM). Further, the minimum bactericidal concentration (MBC) in the assay with E. faecium ATCC 35667 was found to be 16 µg/mL (≈ 41.6 µM); with A. baumannii ATCC 19606 it was 32 µg/mL (≈ 83.2 µM); in the assay on S. aureus ATCC 29213, 16 µg/mL (≈ 41.6 µM); with E. coli ATCC 25922 it was 32 µg/mL (≈ 83.2 µM); with MRSA-2, 4 µg/mL (≈ 10.4 µM); in assay [2] it was 4 µg/mL (≈ 10.4 µM). The minimal bactericidal concentration (MBC) was 8 µg/mL (≈ 20.8 µM) in [3], 8 µg/mL (≈ 20.8 µM) in assay [4], 8 µg/mL (≈ 20.8 µM) in assay [5] and 32 µg/mL (≈ 83.2 µM) in the assay with MRSA-1.
As for `[H]/N=C(\N)NN=C1CCCc2cc(OCCCCC)ccc21` [Compound 2B, (E)-2-(6-(pentyloxy)-3,4-dihydronaphthalen-1(2H)-ylidene)hydrazine-1-carboximidamide], the MIC came out at 4 µg/mL (≈ 13.9 µM) in the assay with E. faecium ATCC 35667; 8 µg/mL (≈ 27.7 µM) in the assay on A. baumannii ATCC 19606; 1 µg/mL (≈ 3.47 µM) in the assay with S. aureus ATCC 29213; 4 µg/mL (≈ 13.9 µM) in the assay on E. coli ATCC 25922; 8 µg/mL (≈ 27.7 µM) in assay [1]; 16 µg/mL (≈ 55.5 µM) in the assay with P. aeruginosa ATCC 27853. Moreover, the minimum inhibitory concentration (MIC) in the assay with MRSA-2 stood at 4 µg/mL (≈ 13.9 µM); in assay [2], 2 µg/mL (≈ 6.93 µM); in [3], 8 µg/mL (≈ 27.7 µM); in [4], 4 µg/mL (≈ 13.9 µM); in assay [5], 8 µg/mL (≈ 27.7 µM); in the assay on MRSA-1, 32 µg/mL (≈ 111 µM). The MBC in the assay on E. faecium ATCC 35667 was found to be 16 µg/mL (≈ 55.5 µM); in the assay on A. baumannii ATCC 19606, 8 µg/mL (≈ 27.7 µM); in the assay with S. aureus ATCC 29213, 8 µg/mL (≈ 27.7 µM); with E. coli ATCC 25922 it was 8 µg/mL (≈ 27.7 µM); in assay [1], 8 µg/mL (≈ 27.7 µM); with P. aeruginosa ATCC 27853, 32 µg/mL (≈ 111 µM). Besides, the MBC in the assay on MRSA-2 was determined as 4 µg/mL (≈ 13.9 µM); in [2] it was 2 µg/mL (≈ 6.93 µM); in [3], 16 µg/mL (≈ 55.5 µM); in assay [4] it was 8 µg/mL (≈ 27.7 µM); in assay [5], 16 µg/mL (≈ 55.5 µM); in the assay on MRSA-1 it was 32 µg/mL (≈ 111 µM).
Consider `[H]/N=C(\N)NN=C1CCCc2cc(OCCCCCC)ccc21` [Compound 2C, (E)-2-(6-(hexyloxy)-3,4-dihydronaphthalen-1(2H)-ylidene)hydrazine-1-carboximidamide], for which the MIC in the assay with E. faecium ATCC 35667 worked out at 2 µg/mL (≈ 6.61 µM); in the assay on A. baumannii ATCC 19606, 4 µg/mL (≈ 13.2 µM); in the assay with S. aureus ATCC 29213, 1 µg/mL (≈ 3.31 µM); in the assay with E. coli ATCC 25922, 4 µg/mL (≈ 13.2 µM); in assay [1] it was 8 µg/mL (≈ 26.5 µM); in the assay on P. aeruginosa ATCC 27853, 8 µg/mL (≈ 26.5 µM). The MIC in the assay with MRSA-2 was determined as 2 µg/mL (≈ 6.61 µM); in assay [2], 4 µg/mL (≈ 13.2 µM); in [3], 8 µg/mL (≈ 26.5 µM); in [4], 2 µg/mL (≈ 6.61 µM); in [5], 8 µg/mL (≈ 26.5 µM); in the assay with MRSA-1 it was 4 µg/mL (≈ 13.2 µM). The MBC in the assay on E. faecium ATCC 35667 was determined as 8 µg/mL (≈ 26.5 µM); in the assay with A. baumannii ATCC 19606, 4 µg/mL (≈ 13.2 µM); with S. aureus ATCC 29213 it was 8 µg/mL (≈ 26.5 µM); in the assay with E. coli ATCC 25922, 4 µg/mL (≈ 13.2 µM); in assay [1], 8 µg/mL (≈ 26.5 µM); in the assay on P. aeruginosa ATCC 27853 it was 16 µg/mL (≈ 52.9 µM). Besides, the MBC in the assay with MRSA-2 amounted to 4 µg/mL (≈ 13.2 µM); in assay [2], 32 µg/mL (≈ 106 µM); in assay [3], 32 µg/mL (≈ 106 µM); in assay [4] it was 8 µg/mL (≈ 26.5 µM); in assay [5], 16 µg/mL (≈ 52.9 µM); with MRSA-1, 16 µg/mL (≈ 52.9 µM).

By MIC is commonly meant the lowest concentration that inhibits growth of the organism. The MBC is the lowest tested concentration that kills the bacteria rather than only halting them.
